Test results reported in article PMC10035947, “Development of novel anilinoquinazoline-based carboxylic acids as non-classical carbonic anhydrase IX and XII inhibitors” (Journal of Enzyme Inhibition and Medicinal Chemistry, 2023).
Like-named read-outs stand apart in the source and are kept apart here.

Legend:
[1] = test system: SK-MEL-5; test: NCI SRB assay; assay type: cell-based, human
[2] = test system: PC-3; test: NCI SRB assay; assay type: cell-based, human; details: for CC50: read-out: LC50 (the source's name)
[3] = test system: OVCAR-3; test: NCI SRB assay; assay type: cell-based, human
[4] = target: T1, hCA I (Homo sapiens, UniProt P00915); test: stopped flow CO2 hydrase assay; assay type: biochemical; details: mean from 3 assays
T1 construct: made in house
T1 sequence (P00915 whole entry): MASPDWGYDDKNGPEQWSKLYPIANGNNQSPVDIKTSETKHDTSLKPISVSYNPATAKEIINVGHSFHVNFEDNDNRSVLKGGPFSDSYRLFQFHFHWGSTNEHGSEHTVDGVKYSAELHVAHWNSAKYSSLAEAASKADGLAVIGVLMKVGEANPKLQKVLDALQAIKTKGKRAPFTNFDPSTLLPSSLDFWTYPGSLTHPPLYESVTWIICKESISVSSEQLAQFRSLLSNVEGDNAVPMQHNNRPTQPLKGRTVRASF
Experimental: (§1) Carbonic anhydrase inhibition assay
(§2) The carbonic anhydrase catalyzed CO2 hydration actions for the quinazoline-based […]
(§3) Photophysics stopped-flow, as described previously. The enzymes are recombinant proteins prepared in our lab. Phenol red (at a concentration of 0.2 mM) has been used as indicator, working at the absorbance maximum of 557 nm, with 20 mM Hepes (pH 7.5) as buffer, and 20 mM Na2SO4 (for maintaining constant the ionic strength), following the initial rates of the CA- […]
(§4) 1.7 to 17 mM for the determination of the kinetic parameters and inhibition constants. For each […]
(§5) initial velocity. The uncatalyzed rates were determined in the same manner and subtracted from the total observed rates. Stock solutions of inhibitor (0.1 mM) were prepared in distilled-deionized water and dilutions up to 0.01 nM were done thereafter with the assay buffer. Inhibitor and enzyme solutions were preincubated together for 15 min at room temperature prior to assay, in order to allow for the formation of the E-I complex. The inhibition constants were obtained by non-linear least-squares methods using PRISM 3 and the Cheng-Prusoff equation, and represent the mean from at least three different determinations.

[5] = target: T2, hCA IX (Homo sapiens, UniProt Q16790); test: stopped flow CO2 hydrase assay; assay type: biochemical
T2 construct: made in house
Experimental: as §1, §2, §3, §4, §5

[6] = target: T3, hCA XII (Homo sapiens, UniProt O43570); test: stopped flow CO2 hydrase assay; assay type: biochemical
T3 construct: made in house
T3 sequence (O43570 25-354): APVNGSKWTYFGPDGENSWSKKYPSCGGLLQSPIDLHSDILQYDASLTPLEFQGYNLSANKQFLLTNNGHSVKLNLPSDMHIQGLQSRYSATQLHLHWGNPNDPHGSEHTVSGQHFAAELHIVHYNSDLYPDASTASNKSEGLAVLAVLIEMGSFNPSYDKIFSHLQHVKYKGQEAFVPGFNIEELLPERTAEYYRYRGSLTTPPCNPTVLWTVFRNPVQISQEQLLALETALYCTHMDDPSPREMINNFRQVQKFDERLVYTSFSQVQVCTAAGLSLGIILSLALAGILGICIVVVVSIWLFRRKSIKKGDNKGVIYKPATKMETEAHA
Experimental: as §1, §2, §3, §4, §5

[7] = test system: HOP-92; test: NCI SRB assay; assay type: cell-based, human; details: for CC50: read-out: LC50 (the source's name)
[8] = test system: SK-MEL-28; test: NCI SRB assay; assay type: cell-based, human; details: for CC50: read-out: LC50 (the source's name)
[9] = test system: HL-60(TB); test: NCI SRB assay; assay type: cell-based, human; details: for CC50: read-out: LC50 (the source's name)
[10] = test system: NCI-H522; test: NCI SRB assay; assay type: cell-based, human
[11] = test system: HCC-2998; test: NCI SRB assay; assay type: cell-based, human; details: for CC50: read-out: LC50 (the source's name)
[12] = test system: IGROV1; test: NCI SRB assay; assay type: cell-based, human; details: for CC50: read-out: LC50 (the source's name)
[13] = test system: NCI/ADR-RES; test: NCI SRB assay; assay type: cell-based, human; details: for CC50: read-out: LC50 (the source's name)
[14] = test system: M14; test: NCI SRB assay; assay type: cell-based, human; details: for CC50: read-out: LC50 (the source's name)
[15] = test system: HS 578 T; test: NCI SRB assay; assay type: cell-based, human; details: for TGI: 5-dose
[16] = Homo sapiens, HOP-92, HOP-92, 5-dose
[17] = Homo sapiens, NCI-H522, NCI-H522, 5-dose
[18] = Homo sapiens, IGROV-1, IGROV1, 5-dose

`Cc1ccc(-c2nc(Nc3ccccc3C(=O)O)c3ccccc3n2)cc1` [6b, 2-((2-(p-Tolyl)quinazolin-4-yl)amino)benzoic acid] gave a GI50 ([1]; Homo sapiens, SK-MEL-5, SK-MEL-5, 5-dose) of 5.32 µM, a CC50 ([1]; Homo sapiens, SK-MEL-5, 5-dose, read-out: LC50 (the source's name)) of 57.5 µM and a GI% ([1]; SK-MEL-5, 10 μM) of 124%. The “Growth Percent” value ([1]; SK-MEL-5, 1.00E-5 Molar) was -24.79%, the GI50 ([1]; SK-MEL-5, 5-dose) was 5.3 µM and the TGI ([1]; SK-MEL-5, 5-dose) was 20.3 µM. The TGI ([1]; SK-MEL-5, 5-dose, listed as D - 835857) was 2.03E-5 Molar, the CC50 ([2]; Homo sapiens, PC-3, PC-3, 5-dose) was over 100 µM and the GI50 ([2]; Homo sapiens, PC-3, 5-dose) was 12.7 µM. For the same molecule, the GI% ([2]; PC-3, 10 μM) was 84%, the “Growth Percent” value ([2]; PC-3, 1.00E-5 Molar) was 15.75% and the TGI ([2]; PC-3, 5-dose) was under 100 µM. It also gave a TGI ([2]; PC-3, 5-dose, listed as D - 835857) of over 1.00E-4 Molar, a CC50 ([2]; PC-3, 5-dose) of under 100 µM and a GI50 ([3]; Homo sapiens, OVCAR-3, 5-dose) of 13.1 µM. The CC50 ([3]; Homo sapiens, OVCAR-3, 5-dose, read-out: LC50 (the source's name)) was over 100 µM, the GI% ([3]; OVCAR-3, 10 μM) was 94% and the “Growth Percent” value ([3]; OVCAR-3, 1.00E-5 Molar) was 6.01%. For the same molecule, the TGI ([3]; OVCAR-3, 5-dose) was 5.13E-5 Molar, the Ki [4] was over 100 µM and the “Selectivity ratio II/IX” value ([5]; KI hCA II / KI hCA IX) was 1.40. For the same molecule, the Ki ([5]; mean from 3 assays) was 34.4 µM, the “Selectivity ratio I/XII” value ([6]; KI hCA I / KI hCA XII) was 14.1 and the “Selectivity ratio II/XII” value ([6]; KI hCA II / KI hCA XII) was 6.79. For the same molecule, the Ki ([6]; mean from 3 assays) was 7.1 µM, the GI% ([7]; HOP-92, 10 μM) was 120% and the “Growth Percent” value ([7]; HOP-92, 1.00E-5 Molar) was -19.52%. It also gave a GI50 ([7]; HOP-92, 5-dose) of 2.9 µM, a TGI ([7]; HOP-92, 5-dose) of 29.3 µM and a TGI ([7]; HOP-92, 5-dose, listed as D - 835857) of 2.93E-5 Molar. It also gave a CC50 ([7]; HOP-92, 5-dose) of under 100 µM, a GI50 [7, 16] of 2.85 µM and a CC50 [7, 16] of over 100 µM. It also gave a CC50 ([8]; Homo sapiens, SK-MEL-28, SK-MEL-28, 5-dose) of over 100 µM, a GI50 ([8]; Homo sapiens, SK-MEL-28, 5-dose) of 15.9 µM and a GI% ([8]; SK-MEL-28, 10 μM) of 71%. For the same molecule, the “Growth Percent” value ([8]; SK-MEL-28, 1.00E-5 Molar) was 28.75%, the TGI ([8]; SK-MEL-28, 5-dose) was 97.4 µM and the TGI ([8]; SK-MEL-28, 5-dose, listed as D - 835857) was 9.74E-5 Molar. The CC50 ([8]; SK-MEL-28, 5-dose) was under 100 µM, the GI% ([9]; HL-60(TB), 10 μM) was 82% and the “Growth Percent” value ([9]; HL-60(TB), 1.00E-5 Molar) was 17.80%. The TGI ([9]; HL-60(TB), 5-dose) was 75.4 µM, the TGI ([9]; HL-60(TB), 5-dose, listed as D - 835857) was 7.54E-5 Molar and the CC50 ([9]; HL-60(TB), 5-dose) was under 100 µM. It also gave a CC50 ([9]; Homo sapiens, HL-60, HL-60(TB), 5-dose) of over 100 µM, a GI50 ([9]; Homo sapiens, HL-60(TB), 5-dose) of 12.9 µM and a GI50 [10, 17] of 4.35 µM. For the same molecule, the LC50 [10, 17] was over 100 µM, the GI% ([10]; NCI-H522, 10 μM) was 67% and the “Growth Percent” value ([10]; NCI-H522, 1.00E-5 Molar) was 33.17%. It also gave a GI50 ([10]; NCI-H522, 5-dose) of 4.4 µM, an LC50 ([10]; NCI-H522, 5-dose) of under 100 µM and a TGI ([10]; NCI-H522, 5-dose) of 27.1 µM. The TGI ([10]; NCI-H522, 5-dose, listed as D - 835857) was 2.71E-5 Molar, the GI% ([11]; HCC-2998, 10 μM) was 95% and the “Growth Percent” value ([11]; HCC-2998, 1.00E-5 Molar) was 5.44%. For the same molecule, the TGI ([11]; HCC-2998, 5-dose) was 36.0 µM, the TGI ([11]; HCC-2998, 5-dose, listed as D - 835857) was 3.60E-5 Molar and the CC50 ([11]; HCC-2998, 5-dose) was under 100 µM. It also gave a CC50 ([11]; Homo sapiens, HCC 2998, HCC-2998, 5-dose) of over 100 µM, a GI50 ([11]; Homo sapiens, HCC-2998, 5-dose) of 12.4 µM and a GI50 [12, 18] of 19.1 µM. The CC50 [12, 18] was over 100 µM, the GI% ([12]; IGROV1, 10 μM) was 69% and the “Growth Percent” value ([12]; IGROV1, 1.00E-5 Molar) was 31.06%. For the same molecule, the TGI ([12]; IGROV1, 5-dose) was 87.1 µM, the TGI ([12]; IGROV1, 5-dose, listed as D - 835857) was 8.71E-5 Molar and the CC50 ([12]; IGROV1, 5-dose) was under 100 µM. For the same molecule, the GI% ([13]; 10 μM) was 95%, the “Growth Percent” value ([13]; 1.00E-5 Molar) was 5.16% and the TGI ([13]; 5-dose) was 98.5 µM. The TGI ([13]; 5-dose, listed as D - 835857) was 9.85E-5 Molar, the CC50 ([13]; 5-dose) was under 100 µM and the GI50 ([13]; Homo sapiens, 5-dose) was 16.8 µM. It also gave a CC50 ([13]; Homo sapiens, 5-dose) of over 100 µM, a CC50 ([14]; Homo sapiens, M14, M14, 5-dose) of over 100 µM and a GI50 ([14]; Homo sapiens, M14, 5-dose) of 15.5 µM. The GI% ([14]; M14, 10 μM) was 87%, the “Growth Percent” value ([14]; M14, 1.00E-5 Molar) was 12.58% and the TGI ([14]; M14, 5-dose) was 77.4 µM. The TGI ([14]; M14, 5-dose, listed as D - 835857) was 7.74E-5 Molar, the CC50 ([14]; M14, 5-dose) was under 100 µM and the GI% ([15]; HS 578 T, 10 μM) was 109%. The “Growth Percent” value ([15]; HS 578T, 1.00E-5 Molar) was -9.53%, the TGI ([15]; HS 578 T) was 67.0 µM and the TGI ([15]; HS 578T) was 6.70E-5 Molar.
